The experiment relates to NMuMG cells. As to the kind of experiment: Apoptosis assay (FITC Annexin V/PI) after ultraviolet irradiation. Format: cell-based, mouse. The settings on record: 2 h pretreatment, ultraviolet 30 mJ/cm^2, 24 hours, mean ± SEM. The protocol: Four groups of NMuMG cells (i.e., a normal control group referred to as Normal Control Group 1-A, an ultraviolet control group referred to as UV Control Group 1-A, and two experimental groups referred to as Experimental Groups 1-A to 2-A) and four groups of HaCaT cells (i.e., a normal control group referred to as Normal Control Group 1-B, an ultraviolet control group referred to as UV Control Group 1-B, and two experimental groups referred to as Experimental Groups 1-B to 2-B), were prepared based on the procedure set forth in “Source and cultivation of cell lines” of “Experimental materials”. The cells in each group were cultivated using 5 mL of a corresponding medium shown in Table 1 and a 6-cm Petri dish in an incubator (37° C., 5% CO2) for 24 hours. […]
Subsequently, the stained cells were analyzed using BD Accuri™ C6 flow cytometry, in which cells that could be stained with FITC Annexin V but not with PI (i.e., FITC Annexin V positive and PI negative) represented cells that were induced with early apoptosis; cells stained with both FITC Annexin V and PI (i.e., FITC Annexin V positive and PI positive) represented cells that were induced with late apoptosis; and cells that could not be stained with FITC Annexin V and PI (i.e., FITC Annexin V negative and PI negative) represented viable cells. […]

Turning to `COc1cc(-c2oc3cc(O)cc(O)c3c(=O)c2O[C@@H]2O[C@H](CO)[C@@H](O)[C@H](O)[C@H]2O)ccc1O` [isorhamnetin-3-O-β-D-glucoside], the Apoptosis percentage came out at 10.6 ± 2.8% (15 μM) and 10.5 ± 2.5 % (30 μM).

For the origin of these results see patent US9821002B2, “Method for alleviating radiation injury with isorhamnetin-3-O-β-D-glucoside” (Sinotai Oncology Associate., Ltd., priority 2015, dated 2017).
